The results in this text go back to patent US9855277B2, “Use of 5H-dibenz/b,f/azepine-5-carboxamide derivatives for treating fibromyalgia” (BIAL—PORTELA & CA, S.A., priority 2009, dated 2018).

Format in all cases: in vivo
In one series the test system is Mice (NMRI). Nature of the series: Formalin paw test. Conditions: 300 mg/kg p.o. As to the method:
The method, which detects analgesic activity, follows that described by Wheeler-Aceto et al (see […]-ACETO, H. & A., C. (1991), “Standardization of the rat paw formalin test for the evaluation of analgesics”, Psychopharmacology, 104, 35-44). Mice (NMRI) were given an intraplantar injection of 5% formalin (25 μl) into the posterior left paw. […] The time spent licking was counted for 15 minutes, beginning 15 minutes after injection of formalin. 10 mice were studied per group. The test was performed blind. ESL and carbamazepine (CBZ) were tested at the doses of 10, 30, 100 and 300 mg/kg p.o., and oxcarbazepine (OXC) and R-Lic were tested at the doses of 100 and 300 mg/kg p.o., administered 60 minutes before the test (i.e. 45 minutes before formalin), and compared with a vehicle control group in each experiment. Morphine (64 mg/kg p.o.), administered under the same experimental conditions, was used as reference substance.

Series [1] is described as follows: Plasma bioanalysis in CCI mice after oral ESL. Particulars: oral ESL 50-200 mg/kg.
In series [2] the test system is mice with chronic constriction nerve injury (CCI). Put plainly: Paw withdrawal threshold (von Frey filaments) in CCI mice. Conditions: gabapentin 100 mg/kg p.o. As to the method: The materials used were (as also indicated in FIGS. 1 and 2): • Vehicle: 0.5% hydroxy-propyl-methyl-cellulose (HPMC) in water, 5 ml/kg, p.o.; • 50 mg/kg, 100 mg/kg, 150 mg/kg and 200 mg/kg: ESL at 50, 100, 150 and 200 mg/kg, p.o.; • GP 100 mg/kg: gabapentin 100 mg/kg, p.o.
The potential analgesic effects of orally dosed ESL was investigated at doses of 50, 100, 150 and 200 mg/kg, on the paw withdrawal threshold (PWT) and these effects compared with those of the dose vehicle and gabapentin, the latter at 100 mg/kg, in a mouse model of chronic constriction nerve injury (CCI).
Each animal received a single oral dose of either ESL (50, 100, 150, or 200 mg/kg), or gabapentin (100 mg/kg in saline) or vehicle (5 ml/kg). Behavioural testing was then performed twice, at approximately 60 and 120 minutes post-dose, to investigate the effect of treatments.

Turning to `NC(=O)N1c2ccccc2C=Cc2ccccc21` [CBZ, carbamazepine, reference compound], the “licking in the formalin test at 300 mg/kg” value with Mice (NMRI) is reported as “abolished licking”. On to `NC(=O)N1c2ccccc2C[C@H](O)c2ccccc21` [eslicarbazepine], for which the “plasma concentrations vs dose of ESL” value in series [1] was “positively correlated with the doses of ESL administered”. With `NCC1(CC(=O)O)CCCCC1` [gabapentin, reference compound], the “PWT in the contralateral limbs vs vehicle group” value in series [2] (2 hour after dosing, P<0.05) is reported as “significantly higher”. For the same compound, the PWT result in series [2] (positive control) is listed as “significantly increased PWT”.
